Laboratory results published in publication PMC10096180, “Half-Sandwich Type Platinum-Group Metal Complexes of C-Glucosaminyl Azines: Synthesis and Antineoplastic and Antimicrobial Activities” (Molecules, 2023).
Read-outs that look alike come from different tables or passages of the source.

Legend:
Format in all cases: cell-based
A2780 cells = experiment: SRB binding assay, cytostasis, 48 h treatment
Summary of the method: (§1)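 Ovarian cancer A2780 cells and primary human dermal fibroblasts treated 48 h, TCA-fixed, SRB-stained, absorbance at 540 nm relative to vehicle. IC50 from four-parameter fit when a plateau was reached or inhibition exceeded 90%; otherwise percent inhibition at 100 μM.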

[1] = molecular target: primary human dermal fibroblasts; experiment: SRB binding assay, cytostasis, 48 h treatment; details: read-out: Fibroblast SRB IC50
Summary of the method: as §1

[2] = system: methicillin-resistant Staphylococcus aureus (MRSA) clinical isolates; experiment: Broth microdilution MIC, clinical MRSA isolates; details: 24 h, 0.08–40 μM
Summary of the method: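 S. aureus and E. faecium clinical isolates (Debrecen, 2018–2020; MALDI-TOF-identified) tested by EUCAST broth microdilution in Mueller–Hinton broth at 5.0 × 10^5 CFU/mL across 0.08–40 μM (twofold). After 24 h at 37 °C, visually read; MIC is the lowest concentration giving ≥50% inhibition versus growth control. At least two runs in duplicate.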

Compound: Cc1ccc(C(C)C)cc1.F[P-](F)(F)(F)(F)F.N[C@@H]1[C@@H](OCc2ccccc2)[C@H](OCc2ccccc2)[C@@H](COCc2ccccc2)O[C@H]1c1ccccn1.[Cl][Ru+] [Ru-3a]
- IC50 (A2780 cells): 1.86 µM
- A2780 SRB Max Inhibition (A2780 cells; up to 100 μM, ND = not detectable): >90%
- IC50 [1]: 9.62 µM
- MIC ([2]; clinical isolate 20,426 MRSA, read-out: MIC 20,426 MRSA): 5 µM
- MIC ([2]; clinical isolate 24,035 MRSA, read-out: MIC 24,035 MRSA): 5 µM
- MIC ([2]; clinical isolate 24,268 MRSA, read-out: MIC 24,268 MRSA): 5 µM
- MIC ([2]; clinical isolate 24,272 MRSA, read-out: MIC 24,272 MRSA): 5 µM
- MIC ([2]; clinical isolate 24,328 MRSA, read-out: MIC 24,328 MRSA): 5 µM
- MIC ([2]; clinical isolate 24,408 MRSA, read-out: MIC 24,408 MRSA): 5 µM
